Results taken from patent US20260199273A1, “Compounds for the Treatment of Neuromuscular Disorders” (NMD PHARMA A/S, priority 2022, published 2026).

Legend:
[1] = molecular target: T1, CIC-1 ion channel (Rattus norvegicus, UniProt P35524); test: Electrophysiological measurement of compound inhibition of CIC-1 in rat muscle (Gm in soleus fibres, three micro-electrodes); type: cell-based; details: Gm in individual fibres of whole rat soleus muscles, approx. 30° C., four increasing compound concentrations; read-out: Potency Range (EC50, inhibition of CIC-1 ion channel)
T1 construct: from tissue; host or cells: whole soleus muscle of 12-14 week old Wistar rats
T1 sequence (P35524 1-994): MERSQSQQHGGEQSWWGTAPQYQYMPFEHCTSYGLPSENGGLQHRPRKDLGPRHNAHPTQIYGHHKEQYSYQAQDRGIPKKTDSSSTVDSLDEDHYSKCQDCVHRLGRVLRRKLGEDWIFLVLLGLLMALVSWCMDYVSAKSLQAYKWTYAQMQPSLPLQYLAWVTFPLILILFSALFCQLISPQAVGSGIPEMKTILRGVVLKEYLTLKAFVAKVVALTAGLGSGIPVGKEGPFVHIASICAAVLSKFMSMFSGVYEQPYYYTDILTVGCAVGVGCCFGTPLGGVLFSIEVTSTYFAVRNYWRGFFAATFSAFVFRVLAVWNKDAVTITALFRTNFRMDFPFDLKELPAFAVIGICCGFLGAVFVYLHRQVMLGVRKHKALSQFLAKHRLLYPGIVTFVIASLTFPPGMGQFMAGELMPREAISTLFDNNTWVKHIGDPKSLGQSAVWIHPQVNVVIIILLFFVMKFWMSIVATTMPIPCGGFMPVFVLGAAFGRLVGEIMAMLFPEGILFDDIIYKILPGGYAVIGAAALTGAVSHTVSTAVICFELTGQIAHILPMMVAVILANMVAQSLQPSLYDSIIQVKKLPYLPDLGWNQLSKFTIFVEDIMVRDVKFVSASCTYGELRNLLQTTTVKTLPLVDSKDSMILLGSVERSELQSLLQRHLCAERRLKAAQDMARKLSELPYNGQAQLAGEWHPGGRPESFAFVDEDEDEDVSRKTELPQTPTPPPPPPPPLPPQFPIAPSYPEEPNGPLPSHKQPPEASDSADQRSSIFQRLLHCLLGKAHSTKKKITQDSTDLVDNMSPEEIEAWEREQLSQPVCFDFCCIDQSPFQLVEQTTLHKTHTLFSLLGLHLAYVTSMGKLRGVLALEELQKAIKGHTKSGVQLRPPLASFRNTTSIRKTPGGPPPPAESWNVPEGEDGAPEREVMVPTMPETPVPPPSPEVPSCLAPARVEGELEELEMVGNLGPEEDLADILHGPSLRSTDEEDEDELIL
Procedure, shortened: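 Membrane conductance (Gm) recorded by three micro-electrodes in soleus fibres of intact muscles from 12-14 week old Wistar rats, Krebs Ringer, ~30° C, pH ~7.4; 50 ms −30 nA pulses, Gm from cable-theory fit. Control Gm in 10 fibres, then four rising concentrations (5-10 fibres each); EC50 by sigmoidal fit.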

[2] = tested on: isolated rat soleus nerve-muscle preparations; test: Measurement of force in an in vitro model: recovery of nerve-stimulated contractile force after tubocurarine; details: 40 min, after 40 mins of compound exposure, tubocurarine (115 nM) for 90 minutes, read-out: Point increase (%): percentage increase of initial force that was restored; for activation at 50 µM: 50 μM of test compound; for activation at 10 µM: 10 μM of test compound
Procedure, shortened: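 Isolated soleus nerve-muscle preparations from 4-5 week old rats, nerve-stimulated in Krebs Ringer at 30° C, 95% O2/5% CO2, pH ~7.4. Force reduced with 115 nM tubocurarine for 90 min, then compound added. Value is percentage-point increase in initial force restored after 40 min compound exposure.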

| SMILES | EC50 [1] [µM] | activation at 50 µM [2] [%] | activation at 10 µM [2] [%] |
| --- | --- | --- | --- |
| O=C(O)c1c(F)c(F)cc2c1CCCC2 [Compound A-44, 2,3-Difluoro-5,6,7,8-tetrahydronaphthalene-1-carboxylic acid] | 2 to 10 | 59 | – |
| Cc1c(Cl)cc2c(c1C(=O)O)CCC2 [Compound A-1, 6-Chloro-5-methyl-2,3-dihydro-1H-indene-4-carboxylic acid] | 10 to 20 | 23 | – |
| COc1c(F)cc2c(c1C(=O)O)CCCC2 [Compound A-18, 3-Fluoro-2-methoxy-5,6,7,8-tetrahydronaphthalene-1-carboxylic acid] | 0.2 to 2 | – | 46 |
| O=C(O)c1c(F)c(F)cc2c1SCCC2 [Compound A-42, 6,7-difluoro-3,4-dihydro-2H-1-benzothiopyran-8-carboxylic acid] | 10 to 20 | 47 | – |

The next lines start with results.

| EC50 [1] [µM] | SMILES | activation at 50 µM [2] [%] | activation at 10 µM [2] [%] |
| --- | --- | --- | --- |
| 10 to 20 | O=C(O)c1c(F)c(C2CC2)cc2c1CCCC2 [Compound A-54, 3-Cyclopropyl-2-fluoro-5,6,7,8-tetrahydronaphthalene-1-carboxylic acid] | 47 | – |
| 0.2 to 2 | O=C(O)c1c(F)c(Cl)cc2c1N(Cc1ccc(F)cc1)CCC2 [Compound A-72, 6-Chloro-7-fluoro-1-[(p-fluorophenyl)methyl]-1,2,3,4-tetrahydro-8-quinolinecarboxylic acid] | – | 20 |
| 2 to 10 | COc1c(C)cc2c(c1C(=O)O)CCC2 [Compound A-47, 5-Methoxy-6-methyl-2,3-dihydro-1H-indene-4-carboxylic acid] | 37 | – |
